# Measurements reported in patent US3969419A, “3-(2-Halo-4-biphenylyl)-1-butanols and derivatives thereof” (Boehringer Ingelheim GmbH, priority 1973, dated 1976).
# Read-outs that look alike come from different tables or passages of the source.
# Columns and labels:
# [1] = acute toxicity by oral administration to rats; assay type: in vivo; conditions: in vivo, po; for selectivity ratio: quotient of LD50 and average anti-exudative ED35, rat, per os, read-out: Therapeutic ratio LD50/aver.ED35; for LD50 at 336 h: rat, per os as trituration in tylose, deaths within 14 days, Litchfield and Wilcoxon
# Method: (§1) The compounds were tested for their anti-exudative effects on the kaolin edema and carrageenin edema of the hind paws of the rat, for their ulcerogenicity and for their acute toxicity by oral administration to rats.
# (§2) After oral administration to male and female FW 49-rats (ratio 1:1) having an average body weight of 135 gm, the acute toxicity (LD50) was determined. The substances were administered orally as a trituration in tylose.
# (§3) The calculation of the LD50 -values was effected, as far as possible, according to the method of Litchfield and Wilcoxon, based on the percentage of animals which died within 14 days after administration of the different doses.
# (§4) The therapeutic indices, as a measure for the therapeutic usefulness, were calculated by forming the quotient of the ED50 -value for the ulcerogenicity or of th LD50 -value and the ED35 -value derived from the tests for anti-exudative activity against the kaolin and carrageenin edema.
# [2] = tested on: kaolin edema of the hind paws of the rat; test: anti-exudative effect on the kaolin edema of the hind paws of the rat; assay type: in vivo, rat (male FW 49); conditions: per os 30 minutes before inducement of edema, swelling at 5 hours, dose leading to 35% reduction of the swelling, graphic extrapolation
# Method: as §1
# (§5) The kaolin edema was induced according to the method of Hillebrecht [Arzneimittel-Forsch. 4, 607 (1954) ] by subplantary injection of 0.05 ml of a 10% suspension of kaolin in a 0.85% sodium chloride solution. The measurement of the thickness of the paws was done by using the technique of Doepfner and Cerletti (Int. Arch. Allergy, Immunol. 12, 89 (1958)).
# (§6) Male FW 49-rats of an average weight of 120-150 gm were orally treated with the test compounds 30 minutes before inducement of the edema with the aid of a esophageal tube. Five hours after the provocation of the edema the averaged values of the swelling caused in the paws of the rats treated with the test compounds were compared with those values measured on blind-treated control animals. By graphic extrapolation the dose leading to a 35% reduction of the swelling (ED35) was calculated from the percent reduction values measured by administration of different doses.
# [3] = in vivo; conditions: po; for selectivity ratio: quotient of ulcerogenic ED50 and average antiexudative ED35, rat, per os, read-out: Therapeutic index: Ratio of ulcerogenic activity to antiexudative activity ED50/ED35; for TD50: rat
# Method: as §1
# The tests for ulcerogenic activity were effected on FW 49-rats of both sexes (ratio 1:1) having a body weight of 130 to 150 gm. The animals were given the substances on three subsequent days, once each day, as a trituration in tylose by way of an esophageal tube.
# The animals were killed four hours after the last administration; the stomach and duodenal mucosa were investigated for ulcers.
# From the percentage of animals showing at least one ulcer after administration of different doses, the ED50 -value was calculated according to the method of Litchfield and Wilcoxon [J. Pharmacol. exp. Therap. 96, 99 (1949) ].
# as §4
# [4] = tested on: kaolin and carrageenin edema of the hind paws of the rat; test: average anti-exudative (antiphlogistic) activity against kaolin and carrageenin edema; assay type: in vivo, rat (male FW 49); conditions: per os, for C only from carrageenin edema
# Method: The compounds of the present invention were tested for antiphlogistic activity, ulcerogenic activity and acute toxicity in the manner described below, and representative results of these tests are shown in the tables, where
# as §1, §5, §6
# (§7) The provocation of the carrageenin edema was effected according to the method of Winter et al. [Proc. Soc. exp. Biol. Med. 111, 544 (1962) ] by subplantary injection of 0.05 ml of a 1% solution of carrageenin in a 0.85% solution of sodium chloride. The test compounds were orally administered 60 minutes before the provocation of the edema.
# (§8) For the calculation of the reductive effect on the edema, the values measured three hours after the provocation of the edema were used. All the other details were the same as described above in the case of the kaolin edema.
# as §4
# [5] = tested on: carrageenin edema of the hind paws of the rat; test: anti-exudative effect on the carrageenin edema of the hind paws of the rat; assay type: in vivo, rat (male FW 49); conditions: per os 60 minutes before provocation of edema, measured 3 hours after, dose leading to 35% reduction of the swelling
# Method: as §1, §7, §8
# [6] = tested on: rat; test: acute toxicity by oral administration to rats; assay type: in vivo; conditions: rat, per os, at 1600 mgm/kg, within 14 days
# Method: as §1, §2, §3, §4
# [7] = Table I, average of kaolin and carrageenin edema, read-out: Average anti-exudative ED35 per os
# [8] = Table II, read-out: Average antiexudative ED35
SMILES,selectivity ratio [1],LD50 at 336 h [1],ED35 [2],selectivity ratio [3],TD50 [3],"ED35 [4, 7]","ED35 [4, 8]",ED35 [5],animals died [6]
"CC(CCO)c1ccc(-c2ccccc2)c(F)c1 (stereo not drawn) [A, 3-(2-fluoro-4-biphenylyl)-1-butanol]",64.7,825 mg/kg,17 mg/kg,2.39,30.5 mg/kg,12.8 mg/kg,12.8 mg/kg,8.5 mg/kg,–
"CC(CCO)c1ccc(-c2ccccc2)c(Cl)c1 (stereo not drawn) [C, 3-(2-chloro-4-biphenylyl)-1-butanol]",> 94.1,> 1600 mg/kg,–,2.15,36.6 mg/kg,17 mg/kg,17 mg/kg,17 mg/kg,1 out of 10
"CC(CCOC(=O)c1ccncc1)c1ccc(-c2ccccc2)c(F)c1.Cl (stereo not drawn) [B, 3-(2-fluoro-4-biphenylyl)-1-butyl isonicotinate hydrochloride]",92.7,1530 mg/kg,20 mg/kg,3.7,61 mg/kg,16.5 mg/kg,16.5 mg/kg,13 mg/kg,–
